According to patent publication US9895369B2, “Stable and soluble formulations of receptor tyrosine kinase inhibitors, and methods of preparation thereof” (ForSight Vision4, Inc., priority 2014, dated 2018):

Columns and labels:
[1] = pH comparison of pazopanib/CAPTISOL solutions with similar composition; type: physicochemical; settings: about 22.4 mg pazopanib salt + about 157 mg CAPTISOL (1.5x molar ratio to drug) in 1 mL water
From the text: From the results of the pH and the chloride content analysis it is concluded that the pharmaceutical ingredient from sample-1 contains 2-HCl per each pazopanib molecule, compared to active from sample-2, which contains only 1 HCl/per drug molecule.

[2] = Precipitation during ambient (room temperature) storage of the formulation; type: physicochemical; settings: high drug concentration; crystallized out during storage and during drug release

Compound | pH, measured [1] | Stability of high concentration formulations (on shelf and upon dilution) [2]
Cc1ccc(Nc2nccc(N(C)c3ccc4c(C)n(C)nc4c3)n2)cc1S(N)(=O)=O [Pazopanib-Sample 1, 5-[[4-[(2,3-Dimethyl-2H-indazol-6-yl)methylamino]-2-pyrimidinyl]amino]-2-methylbenzolsulfonamide] | 1.68 | 
Cc1ccc(Nc2nccc(N(C)c3ccc4c(C)n(C)nc4c3)n2)cc1S(N)(=O)=O [Pazopanib-Sample 2 (1HCl), 5-[[4-[(2,3-Dimethyl-2H-indazol-6-yl)methylamino]-2-pyrimidinyl]amino]-2-methylbenzolsulfonamide] | 3.36 | very unstable
Cc1ccc(Nc2nccc(N(C)c3ccc4c(C)n(C)nc4c3)n2)cc1S(N)(=O)=O [Pazopanib-Sample 2-lyophilized-TFE (1HCl)] [5-[[4-[(2,3-Dimethyl-2H-indazol-6-yl)methylamino]-2-pyrimidinyl]amino]-2-methylbenzolsulfonamide] | 3.34 | 
